The results in this text go back to US5834487A, “Inhibition of 26S and 20S proteasome by indanones” (CV Therapeutics, priority 1996, dated 1998).

The target of this assay is T1, 20S catalytic subunit of the proteasome (multicatalytic proteinase complex) (Bos taurus, UniProt Q32KL2).
T1 construct: was purified to homogeneity from bovine brain according to published methods; from tissue; host or cells: bovine brain
Briefly: 20S proteasome chymotryptic activity, fluorogenic peptide cleavage. It is filed as biochemical, bovine. Conditions: 50 μM succinyl-leu-leu-val-tyr-7-amino-4-methyl coumarin, 15 minutes at 37° C, pH7.5. How it is done: Compounds of this invention prepared according to the method of Example 1 were tested as follows. The 20S catalytic subunit of the proteasome (also known as the multicatalytic proteinase complex) was purified to homogeneity from bovine brain according to published methods (Wilk S. and Orlowski, M, 40 842 J. Neurochem (1983)). The chymotryptic activity of the complex is measured by the increase in fluorescence following cleavage of the substrate peptide succinyl-leucine-leucine-valine-tyrosine-7-amino-4-methyl coumarin. The standard in vitro assay consists of 2 μg 20S proteasome, 0.1-100 μg/ml proteasome inhibitor in 200 μl 50 mM HEPES, containing 0.1% sodium dodecyl sulphate, pH7.5. The proteolytic reaction is initiated by the addition of 50 μM fluorogenic peptide substrate and allowed to progress for 15 minutes at 37° C. The reaction is terminated by the addition of 100 μl of 100 mM acetate buffer, pH4.0. The rate of proteolysis is directly proportional to the amount of liberated aminomethylcoumarin which is measured by fluorescent spectroscopy (EX 370 nm, EM 430 nm).
`COc1ccc2c(c1)C(CC(=O)NC(CC(C)C)C(=O)NC(C)C(N)=O)CC2=O` (mixture of isomers) [Compound 52] displayed an IC50 of more than 10 µg/mL. As for `COc1ccc2c(c1)C(CC(=O)NC(CC(C)C)C(=O)NC(C)C(N)=O)CC2=O` (mixture of isomers) [Compound 53], the IC50 is more than 10 µg/mL. The value for `COc1ccc2c(c1)C(CC(=O)NC(CC(C)C)C(=O)N1CCCC1C(N)=O)CC2=O` (mixture of isomers) [Compound 54] was more than 10 µg/mL.

Take `COc1ccc2c(c1)C(CC(=O)N1CCCC1C(N)=O)CC2=O` (mixture of isomers) [Compound 55]: the IC50 was more than 10 µg/mL. The value for `COc1ccc2c(c1)C(CC(=O)NC(CC(C)C)C(=O)NC(Cc1ccccc1)C(N)=O)CC2=O` (mixture of isomers) [Compound 56] was more than 10 µg/mL. Next, `CCCC(NC(=O)CC1CC(=O)c2ccc(OC)cc21)C(=O)NC(CC(C)C)C(N)=O` (mixture of isomers) [Compound 57]: more than 10 µg/mL; `CCCC(NC(=O)CC1CC(=O)c2ccc(OC)cc21)C(=O)NC(CC(C)C)C(N)=O` (mixture of isomers) [Compound 58]: more than 10 µg/mL; `COc1ccc2c(c1)C(CC(=O)NC(C)C(=O)NC(CC(C)C)C(N)=O)CC2=O` (mixture of isomers) [Compound 59]: more than 10 µg/mL. Consider `COc1ccc2c(c1)C(CC(=O)N1Cc3ccccc3CC1C(=O)NC(CC(C)C)C(N)=O)CC2=O` (mixture of isomers) [Compound 60], for which the IC50 was more than 10 µg/mL.

As for `COc1ccc2c(c1)C(CC(=O)NC(CO)C(=O)NC(CC(C)C)C(N)=O)CC2=O` (mixture of isomers) [Compound 61], the IC50 is more than 10 µg/mL. The value for `COc1ccc2c(c1)C(CC(=O)NC(CC(C)C)C(=O)N1CCCC1C(=O)NCC(N)=O)CC2=O` (mixture of isomers) [Compound 92] was more than 10 µg/mL; that for `COc1ccc2c(c1)C(CC(=O)NC(CCCNC(=N)N)C(=O)NC(CC(C)C)C(N)=O)CC2=O` (mixture of isomers) [Compound 93] was more than 10 µg/mL; that for `COc1ccc2c(c1)C(CC(=O)NC(CC(=O)O)C(=O)NC(CC(C)C)C(N)=O)CC2=O` (mixture of isomers) [Compound 94] was more than 10 µg/mL. Next, `COc1ccc2c(c1)C(CC(=O)NC(CC(N)=O)C(=O)NC(CC(C)C)C(N)=O)CC2=O` (mixture of isomers) [Compound 95]: 10 µg/mL. Next, `COc1ccc2c(c1)C(CC(=O)NC(CC(N)=O)C(=O)NC(CC(C)C)C(N)=O)CC2=O` (mixture of isomers) [Compound 96]: more than 10 µg/mL; `COc1ccc2c(c1)C(CC(=O)NC(CCC(=O)O)C(=O)NC(CC(C)C)C(N)=O)CC2=O` (mixture of isomers) [Compound 97]: more than 10 µg/mL; `COc1ccc2c(c1)C(CC(=O)NC(CCC(N)=O)C(=O)NC(CC(C)C)C(N)=O)CC2=O` (mixture of isomers) [Compound 98]: more than 10 µg/mL. Compound `COc1ccc2c(c1)C(CC(=O)NC(Cc1c[nH]cn1)C(=O)NC(CC(C)C)C(N)=O)CC2=O` (mixture of isomers) [Compound 99] displayed an IC50 of more than 10 µg/mL. Turning to `COc1ccc2c(c1)C(CC(=O)NC(CCCCN)C(=O)NC(CC(C)C)C(N)=O)CC2=O` (mixture of isomers) [Compound 100], the IC50 was more than 10 µg/mL.

On to `COc1ccc2c(c1)C(CC(=O)NC(Cc1ccc(O)cc1)C(=O)NC(CC(C)C)C(N)=O)CC2=O` (mixture of isomers) [Compound 102], for which the IC50 was more than 10 µg/mL. Next, `COc1ccc2c(c1)C(CC(=O)NC(Cc1c[nH]c3ccccc13)C(=O)NC(CC(C)C)C(N)=O)CC2=O` (mixture of isomers) [Compound 103]: more than 10 µg/mL.

The compound `COc1ccc2c(c1)C(CC(=O)NC(CC(C)C)C(=O)NC(CC(C)C)C(=O)NC(C(N)=O)C(C)C)CC2=O` (mixture of isomers) [Compound 123] returned an IC50 of more than 10 µg/mL.

`COc1ccc2c(c1)C(CC(=O)NC(CC(C)C)C(=O)NC(CC(C)C)C(=O)NC(C(N)=O)C(C)C)CC2=O` (mixture of isomers) [Compound 124]: the IC50 was more than 10 µg/mL. Next, `COc1ccc2c(c1)C(CC(=O)NC(CC(C)C)C(=O)NC(CC(C)C)C(=O)NC(C)C(N)=O)CC2=O` (mixture of isomers) [Compound 125]: more than 10 µg/mL; `COc1ccc2c(c1)C(CC(=O)NC(CC(C)C)C(=O)NC(CC(C)C)C(=O)NC(C)C(N)=O)CC2=O` (mixture of isomers) [Compound 126]: more than 10 µg/mL.

Compound `COc1ccc2c(c1)C(CC(=O)NC(CC(C)C)C(=O)NC(CC(C)C)C(=O)NC(Cc1ccccc1)C(N)=O)CC2=O` (mixture of isomers) [Compound 127] showed an IC50 of more than 10 µg/mL.

The compound `COc1ccc2c(c1)C(CC(=O)NC(CC(C)C)C(=O)NC(CC(C)C)C(=O)NC(Cc1ccccc1)C(N)=O)CC2=O` (mixture of isomers) [Compound 128] registered an IC50 of more than 10 µg/mL. Turning to `COc1ccc2c(c1)C(CC(=O)NC(CC(C)C)C(=O)NC(CCCNC(=N)N)C(N)=O)CC2=O` (mixture of isomers) [Compound 129], the IC50 was more than 10 µg/mL. Next, `COc1ccc2c(c1)C(CC(=O)NC(CC(C)C)C(=O)NC(CC(=O)O)C(N)=O)CC2=O` (mixture of isomers) [Compound 130]: more than 10 µg/mL; `COc1ccc2c(c1)C(CC(=O)NC(CC(C)C)C(=O)NC(CC(N)=O)C(N)=O)CC2=O` (mixture of isomers) [Compound 131]: more than 10 µg/mL; `COc1ccc2c(c1)C(CC(=O)NC(CC(C)C)C(=O)NC(CC1CCCCC1)C(N)=O)CC2=O` (mixture of isomers) [Compound 132]: more than 10 µg/mL. As to `COc1ccc2c(c1)C(CC(=O)NC(CC(C)C)C(=O)NC(CCC(=O)O)C(N)=O)CC2=O` (mixture of isomers) [Compound 133], the IC50 was more than 10 µg/mL. Compound `CCCCC(NC(=O)C(CC(C)C)NC(=O)CC1CC(=O)c2ccc(OC)cc21)C(N)=O` (mixture of isomers) [Compound 134] displayed an IC50 of more than 10 µg/mL. The value for `COc1ccc2c(c1)C(CC(=O)NC(CC(C)C)C(=O)NC(Cc1c[nH]c3ccccc13)C(N)=O)CC2=O` (mixture of isomers) [Compound 136] was more than 10 µg/mL. The value for `COc1ccc2c(c1)C(CC(=O)NC(CC(C)C)C(=O)NC(CCC(N)=O)C(N)=O)CC2=O` (mixture of isomers) [Compound 137] was more than 10 µg/mL; that for `COc1ccc2c(c1)C(CC(=O)NC(CC(C)C)C(=O)NC(CCCCN)C(N)=O)CC2=O` (mixture of isomers) [Compound 138] was more than 10 µg/mL; that for `CCCC(NC(=O)C(CC(C)C)NC(=O)CC1CC(=O)c2ccc(OC)cc21)C(N)=O` (mixture of isomers) [Compound 139] was more than 10 µg/mL.

For `COc1ccc2c(c1)C(CC(=O)NC(CC(C)C)C(=O)NC(C(N)=O)c1ccccc1)CC2=O` (mixture of isomers) [Compound 140], the IC50 was more than 10 µg/mL. Next, `COc1ccc2c(c1)C(CC(=O)NC(CC(C)C)C(=O)NC(CO)C(N)=O)CC2=O` (mixture of isomers) [Compound 141]: more than 10 µg/mL.
